From USRE29225E, “N-substituted derivatives of 3-carboxamide and 3-thiocarboxamide” (The Dow Chemical Company, priority 1976, dated 1977)
Converted amounts (≈) assume the structure as drawn.

How the values were obtained:
Format in all cases: cell-based
S. aureus = assay: agar dilution test, S. aureus; conditions: Staphylococcus aureus, complete growth inhibition, read-out: Minimum Inhibitory Concentration, Sa
Source text: (§1) In representative operations, the products of the invention when tested for antimicrobial activity using conventional agar dilution tests gave complete growth inhibition against the following organisms at the indicated concentrations in parts per million: […]

S. typhosa = assay: agar dilution test, S. typhosa; conditions: read-out: Minimum Inhibitory Concentration, St
Source text: as §1

A. aerogenes = assay: agar dilution test, A. aerogenes; conditions: Klebsiella aerogenes; A. aerogenes; agar dilution; complete growth inhibition; read-out: Minimum Inhibitory Concentration, Aa
Source text: as §1

P. aeruginosa = assay: agar dilution test, P. aeruginosa; conditions: Pseudomonas aeruginosa; P. aeruginosa; agar dilution; complete growth inhibition; read-out: Minimum Inhibitory Concentration, Pa
Source text: as §1

C. pelliculosa = assay: agar dilution test, C. pelliculosa; conditions: Hansenula anomala; C. pelliculosa; agar dilution; complete growth inhibition; read-out: Minimum Inhibitory Concentration, Cp
Source text: as §1

S. cerevisiae = assay: agar dilution test, S. cerevisiae; conditions: Saccharomyces cerevisiae; S. cerevisiae; agar dilution; complete growth inhibition; read-out: Minimum Inhibitory Concentration, Sc
Source text: as §1

A. niger = assay: agar dilution test, A. niger; conditions: Aspergillus niger; A. niger; agar dilution; complete growth inhibition; read-out: Minimum Inhibitory Concentration, An
Source text: as §1

P. chrysogenum = assay: agar dilution test, P. chrysogenum; conditions: Penicillium chrysogenum; P. chrysogenum; agar dilution; complete growth inhibition; read-out: Minimum Inhibitory Concentration, Pen
Source text: as §1

Row | Compound | MIC (S. aureus) [µg/mL] | MIC (S. typhosa) [µg/mL] | MIC (A. aerogenes) [µg/mL] | MIC (P. aeruginosa) [µg/mL] | MIC (C. pelliculosa) [µg/mL] | MIC (S. cerevisiae) [µg/mL] | MIC (A. niger) [µg/mL] | MIC (P. chrysogenum) [µg/mL]
1 | O=C(Nc1ccc(Cl)c(Cl)c1)N1CN2CN(C/C=C\Cl)CN(C2)C1 [Example 3 g)] | 50 (≈ 128 µM) | 25 (≈ 64 µM) | 250 (≈ 640 µM) | 250 (≈ 640 µM) | 250 (≈ 640 µM) | 250 (≈ 640 µM) | 500 (≈ 1280 µM) | 250 (≈ 640 µM)
2 | O=C(NC1CCCCC1)N1CN2CN(C/C=C\Cl)CN(C2)C1 [Example 3 h)] | 75 (≈ 229 µM) | 25 (≈ 76.3 µM) | 50 (≈ 153 µM) | 50 (≈ 153 µM) | 250 (≈ 763 µM) | 250 (≈ 763 µM) | 500 (≈ 1530 µM) | 250 (≈ 763 µM)
3 | Cc1ccc(S(=O)(=O)NC(=O)N2CN3CN(C/C=C\Cl)CN(C3)C2)cc1 [Example 3 i)] | 250 (≈ 625 µM) | 50 (≈ 125 µM) | 250 (≈ 625 µM) | 500 (≈ 1250 µM) | 500 (≈ 1250 µM) | 500 (≈ 1250 µM) | > 500 | 500 (≈ 1250 µM)
4 | S=C(Nc1ccc(Cl)cc1)N1CN2CN(C/C=C\Cl)CN(C2)C1 [Example 3 j)] | 75 (≈ 201 µM) | 50 (≈ 134 µM) | 75 (≈ 201 µM) | 100 (≈ 269 µM) | 250 (≈ 671 µM) | 250 (≈ 671 µM) | 250 (≈ 671 µM) | 100 (≈ 269 µM)
5 | S=C(Nc1ccc(Br)cc1)N1CN2CN(C/C=C\Cl)CN(C2)C1 [Example 3 k)] | 250 (≈ 600 µM) | 75 (≈ 180 µM) | 100 (≈ 240 µM) | 250 (≈ 600 µM) | 250 (≈ 600 µM) | 500 (≈ 1200 µM) | 500 (≈ 1200 µM) | 250 (≈ 600 µM)
6 | S=C(Nc1ccc(Cl)c(Cl)c1)N1CN2CN(C/C=C\Cl)CN(C2)C1 [Example 3 l)] | 50 (≈ 123 µM) | 75 (≈ 184 µM) | 100 (≈ 246 µM) | 100 (≈ 246 µM) | 250 (≈ 615 µM) | 250 (≈ 615 µM) | 250 (≈ 615 µM) | 100 (≈ 246 µM)
7 | Cc1ccc(NC(=S)N2CN3CN(C/C=C\Cl)CN(C3)C2)cc1C [Example 3 m)] | 50 (≈ 137 µM) | 50 (≈ 137 µM) | 75 (≈ 205 µM) | 100 (≈ 273 µM) | 250 (≈ 683 µM) | 250 (≈ 683 µM) | 250 (≈ 683 µM) | 100 (≈ 273 µM)
8 | CCCCNC(=O)N1CN2CN(C/C=C\Cl)CN(C2)C1 [Example 3 n)] | 50 (≈ 166 µM) | 25 (≈ 82.8 µM) | 50 (≈ 166 µM) | 75 (≈ 248 µM) | 250 (≈ 828 µM) | 250 (≈ 828 µM) | 250 (≈ 828 µM) | 250 (≈ 828 µM)
9 | CCCCNC(=S)N1CN2CN(C/C=C\Cl)CN(C2)C1 [Example 3 o)] | 100 (≈ 315 µM) | 75 (≈ 236 µM) | 100 (≈ 315 µM) | 250 (≈ 786 µM) | > 500 | 500 (≈ 1570 µM) | 500 (≈ 1570 µM) | 500 (≈ 1570 µM)
